Bounds are passed on as bounds.

The test system of series [1] is anti-Malachite Green antibodies. Kind of series: competitive ELISA: sensitivity and specificity of the produced anti-Malachite Green antibodies. In kind it is binding, rabbit. Conditions: for level detectable by the antibodies: competitive inhibition ELISA; for Cross-reactivities / Sensitivity: competitive ELISA; for Cross-reactivities: Malachite Green = 100; for Sensitivity: produced anti-Malachite Green antibodies. The protocol:
In accordance with this embodiment, the diluted antiserum is added to a Malachite Green Chromatic conjugate-coated solid substrate such as the wells of an assay plate, together with a range of concentrations of free Malachite Green Chromatic as a competitor. Following incubation and washing, bound antibody in the wells is determined. Percent inhibition may be calculated as (1−B/B0)×100 where B is the optical density (OD) of a well with a competitor and B0 is the mean OD of the wells without competitor (control). […] However, for even greater accuracy, the affinity may be alternatively measured at 50% inhibition (IC50). […] Detection of bound antibody may be accomplished by addition of enzyme-labeled anti-immunoglobulin antibodies followed by enzyme substrate. Horseradish peroxidase and its substrate TMB are preferred enzyme/substrate labels. However, it is understood that other enzyme/substrate labels or non-enzyme labels such as radiolabels or chromophores may also be used.
Two female New Zealand White Rabbits, 8 weeks old, were initially immunized by intraperitoneal injection with 0.2 mg of Malachite Green-KLH conjugate as prepared in EXAMPLE 1 mixed with complete Freund's adjuvant. Five booster immunizations were administered at 15-day intervals using the antigen. Blood was collected 7 to 10 days after the last booster immunization in order to check for antibody titers. Titers were checked using both indirect ELISA and competitive ELISA that employed Malachite Green Chromatic-BSA conjugate as the coating antigen and free Malachite Green Chromatic as competitor. […] A typical competitive ELISA procedure is described below: • (1). In the Malachite Green Chromatic-BSA coated 96-well plate, add 50 μL of negative control and each Malachite Green Chromatic standard (1, 5, 10, 25, 50, 100 ng/mL) in duplicate into different wells; add 50 μL of each sample in duplicate into different sample wells. • (2). Add 100 μL of diluted Malachite Green Antibody #1 and mix well by gently tapping the edge of the plate for 10 seconds. • (3). Incubate the plate for 30 min at 37° C. or 1 hr at room temperature (15-25° C.). • (4). Wash the plate 3 times with 250 μL 1×PBS. After the last wash, gently slap the plate dry on paper towels. • (5). Add 150 μL of HRP Goat-against Rabbit antibody conjugate solution. Incubate the plate for 30 min at 37° C. or 1 hr at room temperature (15-25° C.). • (6). Wash the plate 3 times with 250 μL 1×PBS. After the last wash, gently slap the plate dry on paper towels. • (7). Add 100 μL of TMB substrate. • (8). Time the reaction immediately after adding the substrate; mix the solution by gently tapping the edge of the plate. • (9). After incubating for 15 min at room temperature, add 100 μL of 1 M H2SO4 to stop the enzyme reaction before reading the plate at 450 nm.
Background: In an ELISA, binding on a coated surface is turned into a signal by an enzyme label.

The conditions of series [2]: in fish; cited from earlier work.
For series [3], the system named is Leukomalachite Green antibody. The conditions noted are these: Randox antibody raised against Leucomalachite Green immunogen; cited from earlier work.

`CN(C)c1ccc(C(O)(c2ccccc2)c2ccc(N(C)C)cc2)cc1` [Carbinol]: the “level detectable by the antibodies” value in series [1] is reported as 0.5 ng/mL.
Turning to `O=C(N[C@H](CO)[C@H](O)c1ccc([N+](=O)[O-])cc1)C(Cl)Cl` [Chloramphenicol], in series [1], the Cross-reactivities is recorded as less than 0.01% and the Sensitivity is recorded as >10,000 ng/ml.
Consider `CC(C)(C)NCC(O)c1cc(Cl)c(N)c(Cl)c1` (centres unmarked) [Clenbuterol], for which, in series [1], the Cross-reactivities was less than 0.01% and the Sensitivity is >10,000 ng/ml.
The like results for `CN(C)c1ccc(C(=C2C=CC(=[N+](C)C)C=C2)c2ccc(N(C)C)cc2)cc1` [Crystal Violet] were, in that order, 42% and 10 ng/mL.
As to `O=C1OCCN1/N=C/c1ccc([N+](=O)[O-])o1` [Furazolidone], the Sensitivity in series [1] was >10,000 ng/ml.
In series [1], `CN(C)c1ccc(C(c2ccc(N(C)C)cc2)c2ccc(N(C)C)cc2)cc1` [Leucocrystal Violet] displayed a Cross-reactivities of less than 0.01% and a Sensitivity of 5000 ng/mL.
Consider `CN(C)c1ccc(C(c2ccccc2)c2ccc(N(C)C)cc2)cc1` [Leucomalachite Green], for which, in series [1], the Cross-reactivities is recorded as 1%, the Sensitivity amounted to 500 ng/mL and the “level detectable by the antibodies” value is 0.5 ng/mL.
With `CN(C)c1ccc(C(=C2C=CC(=[N+](C)C)C=C2)c2ccccc2)cc1` [Malachite Green], in series [1], the Cross-reactivities is 100% and the Sensitivity came out at 1 ng/mL. Also, the test sensitivity in series [1] (produced antibodies, Table 1 summary) came to 1 ppb. The “converted into Leucomalachite Green” value in series [2] is given as approximately 80%. Moreover, the cross reactivity in series [3] is reported as 26.8%.
Take `Cc1cc(C)nc(NS(=O)(=O)c2ccc(N)cc2)n1` [Sulfumethazine]: in series [1], the Cross-reactivities is recorded as less than 0.01% and the Sensitivity is given as >10,000 ng/ml.

Source of the values: patent publication US20070254323A1, “Malachite green derivatives for immunoassay reagents to detect malachite green” (priority 2006, published 2007).
